The supplement of paper PMC13380429

Assays:
Conditions in all cases: 72 h
Caco-2 [1] = test: cell viability relative to DMSO; higher = less toxic
Calu-3 [2] = test: as above
HepG2 [3] = test: as above
U2OS [4] = test: as above
Caco-2 [5] = test: relative viability EC50 (midpoint between 100% and the lowest measured viability); higher = less toxic
Calu-3 [6] = test: as above
HepG2 [7] = test: as above
U2OS [8] = test: as above
Caco-2 [9] = test: drug sensitivity score (DSS) for viability; higher = more toxic; extreme values may be limits of the assay
Calu-3 [10] = test: as above
HepG2 [11] = test: as above
U2OS [12] = test: as above
Vero E6 [13] = test: cell viability relative to DMSO; higher = less toxic
Vero E6 [14] = test: relative viability EC50 (midpoint between 100% and the lowest measured viability); higher = less toxic
Vero E6 [15] = test: drug sensitivity score (DSS) for viability; higher = more toxic; extreme values may be limits of the assay

| Compound | cell viability (Caco-2 [1]; 1 nM) [%] | cell viability (Caco-2 [1]; 10 nM) [%] | cell viability (Caco-2 [1]; 100 nM) [%] | cell viability (Caco-2 [1]; 1000 nM) [%] | cell viability (Caco-2 [1]; 10000 nM) [%] | cell viability (Calu-3 [2]; 1 nM) [%] | cell viability (Calu-3 [2]; 10 nM) [%] | cell viability (Calu-3 [2]; 100 nM) [%] | cell viability (Calu-3 [2]; 1000 nM) [%] | cell viability (Calu-3 [2]; 10000 nM) [%] | cell viability (HepG2 [3]; 1 nM) [%] | cell viability (HepG2 [3]; 10 nM) [%] | cell viability (HepG2 [3]; 100 nM) [%] | cell viability (HepG2 [3]; 1000 nM) [%] | cell viability (HepG2 [3]; 10000 nM) [%] | cell viability (U2OS [4]; 1 nM) [%] | cell viability (U2OS [4]; 10 nM) [%] | cell viability (U2OS [4]; 100 nM) [%] | cell viability (U2OS [4]; 1000 nM) [%] | cell viability (U2OS [4]; 10000 nM) [%] | relative viability EC50 (Caco-2 [5]) [µM] | relative viability EC50 (Calu-3 [6]) [µM] | relative viability EC50 (HepG2 [7]) [µM] | relative viability EC50 (U2OS [8]) [µM] | drug sensitivity score (Caco-2 [9]) | drug sensitivity score (Calu-3 [10]) | drug sensitivity score (HepG2 [11]) | drug sensitivity score (U2OS [12]) | cell viability (Vero E6 [13]; 1 nM) [%] | cell viability (Vero E6 [13]; 10 nM) [%] | cell viability (Vero E6 [13]; 100 nM) [%] | cell viability (Vero E6 [13]; 1000 nM) [%] | cell viability (Vero E6 [13]; 10000 nM) [%] | relative viability EC50 (Vero E6 [14]) [µM] | drug sensitivity score (Vero E6 [15]) |
| --- | --- | --- | --- | --- | --- | --- | --- | --- | --- | --- | --- | --- | --- | --- | --- | --- | --- | --- | --- | --- | --- | --- | --- | --- | --- | --- | --- | --- | --- | --- | --- | --- | --- | --- | --- |
| CCc1ccc(/C=C2/SC(=S)NC2=O)cc1 | 102 | 85.3 | 101 | 108 | 93.3 | 101 | 87 | 97.9 | 93.4 | 103 | 98.2 | 106 | 93.7 | 95.9 | 95.6 | 97.9 | 95.9 | 99.8 | 94.9 | 96.7 | > 10 | > 10 | > 10 | > 10 | 0 | 0 | 0 | 0 | – | – | – | – | – | – | – |
| CCCS(=O)(=O)Nc1ccc(F)c(C(=O)c2c[nH]c3ncc(Cl)cc23)c1F [PLX4720] | 96.8 | 96.9 | 93.6 | 91 | 73.3 | 93.4 | 89.8 | 100 | 106 | 106 | 104 | 94.6 | 104 | 90.9 | 49.5 | 102 | 95.8 | 97.1 | 100 | 101 | – | > 10 | 1.82 | > 10 | 1.7 | 0 | 4.2 | 0 | 106 | 100 | 100 | 106 | 82.5 | > 10 | 0.2 |
| COc1cc(Nc2ncc3c(n2)-c2ccc(Cl)cc2C(c2c(F)cccc2OC)=NC3)ccc1C(=O)O [alisertib] | 102 | 90 | 83 | 87.9 | 72.8 | 106 | 105 | 98.1 | 88.4 | 78.8 | 102 | 98 | 58.7 | 66.6 | 61.4 | 102 | 99.7 | 81.5 | 78.2 | 58.6 | – | > 10 | – | – | 3.5 | 1.6 | 13.1 | 5.7 | 96.3 | 103 | 84.4 | 82.7 | 67 | – | 4.1 |
| C[S+](CC[C@H](N)C(=O)O)C[C@H]1O[C@@H](n2cnc3c(N)ncnc32)[C@H](O)[C@@H]1O (stereo partly drawn) [ademetionine] | – | – | – | – | – | 106 | 106 | 105 | 99.8 | 96.3 | 94.7 | 105 | 89.9 | 91.4 | 91.3 | 100 | 97.9 | 98.5 | 98 | 106 | – | > 10 | > 10 | > 10 | – | 0 | 0 | 0 | 99.8 | 104 | 103 | 108 | 92.2 | > 10 | 0 |
| CCC1(c2c[nH]cn2)Cc2ccccc2C1 [atipamezole] | 104 | 115 | 104 | 100 | 108 | 96.9 | 101 | 94.9 | 106 | 93.5 | 102 | 95.5 | 111 | 100 | 109 | – | – | – | – | – | > 10 | > 10 | > 10 | – | 0 | 0 | 0 | – | – | – | – | – | – | – | – |
| CN(C)C1CCN(C(=O)c2ccc(NC(=O)Nc3ccc(-c4nc(N5CCOCC5)nc(N5CCOCC5)n4)cc3)cc2)CC1 | 93.8 | 93.7 | 102 | 87.1 | 66.7 | 105 | 90.5 | 87.2 | 65.6 | 35.5 | 98.5 | 108 | 95.8 | 100 | 84.3 | 97.7 | 97.8 | 100 | 92.1 | 79.7 | – | 0.635 | > 10 | > 10 | 3.3 | 8.3 | 0.3 | 1.5 | 94.2 | 100 | 89.3 | 90.7 | 107 | > 10 | 0 |
| CCCn1c(=O)c2nc(C34CC5CC(CC3C5)C4)[nH]c2n(CCC)c1=O [KW-3902] | 95.9 | 94.4 | 101 | 95.1 | 82.5 | 83.8 | 89.3 | 92.6 | 96.6 | 100 | 94.2 | 92.9 | 98.2 | 101 | 91.6 | 98.8 | 96.5 | 100 | 99.5 | 102 | > 10 | > 10 | > 10 | > 10 | 0.9 | 0 | 0 | 0 | – | – | – | – | – | – | – |
| O=C(Nc1c[nH]nc1-c1nc2ccc(CN3CCOCC3)cc2[nH]1)NC1CC1 [AT-9283] | 87.1 | 102 | 90.9 | 90.7 | 71.8 | 107 | 96.9 | 85.9 | 65.4 | 43.6 | 96.6 | 97.7 | 82.4 | 57.3 | 5.8 | 98.2 | 97.7 | 80.6 | 74.7 | 1.1 | – | 0.461 | 0.93 | 1.66 | 2 | 8 | 10.8 | 8.8 | 99.9 | 93.1 | 90.4 | 86.7 | 66.7 | – | 3.1 |
| COC(=O)Nc1nc2cc(SC(C)C)ccc2[nH]1 [methiazole] | 104 | 100 | 99.1 | 86.8 | 49 | 95.5 | 97 | 103 | 81.6 | 64.6 | 95 | 105 | 95.7 | 83.4 | 35 | 101 | 97.6 | 99.9 | 86.4 | 41.1 | 1.52 | – | 1.53 | 1.62 | 4.8 | 4 | 6.1 | 5.4 | 91.9 | 103 | 92.6 | 86.6 | 47.5 | 1.61 | 4.7 |
| Cn1c(=O)cnn(CCCCN2CCN(c3ncccn3)CC2)c1=O | – | – | – | – | – | 111 | 91.3 | 102 | 120 | 103 | 111 | 114 | 95.2 | 116 | 106 | 103 | 97.1 | 103 | 97.8 | 103 | – | > 10 | > 10 | > 10 | – | 0 | 0 | 0 | – | – | – | – | – | – | – |
| C#C[C@]1(OC(C)=O)CC[C@H]2[C@@H]3CCC4=CC(=O)CC[C@@H]4[C@H]3CC[C@@]21C [norethindrone-acetate] | 91.8 | 97.1 | 84.7 | 95 | 70.4 | 93.2 | 82.9 | 90.8 | 104 | 95.6 | – | – | – | – | – | 100 | 99.6 | 98.5 | 98.5 | 94.9 | – | > 10 | – | > 10 | 2.3 | 0 | – | 0 | 104 | 108 | 110 | 90.5 | 98.1 | > 10 | 0 |
| CCCn1c(=O)c2[nH]c(C3CCCC3)nc2n(CCC)c1=O [DPCPX] | 105 | 106 | 106 | 106 | 93.3 | – | – | – | – | – | 102 | 105 | 99.8 | 101 | 91.5 | 100 | 102 | 99.8 | 96.6 | 100 | > 10 | – | > 10 | > 10 | 0 | – | 0 | 0 | 106 | 107 | 98.2 | 99.8 | 89.1 | > 10 | 0 |
| CC(C)(O)C(=O)N1CCN(c2ccc(C(F)(F)F)c(C3=C(c4c[nH]c5ccccc45)C(=O)NC3=O)c2)CC1 | 92.7 | 95.5 | 95.7 | 105 | 51.1 | 102 | 93.2 | 106 | 117 | 46.2 | 101 | 96.5 | 103 | 107 | 7.5 | 99.6 | 95.8 | 103 | 102 | 35.6 | – | 4.17 | 3.57 | 3.35 | 2.2 | 2.1 | 4.6 | 3.3 | 102 | 97.7 | 96.9 | 104 | 29.5 | 3.46 | 3.6 |
| O=c1c(O)c(-c2ccc(O)cc2)oc2cc(O)cc(O)c12 [kaempferol] | 98.5 | 99.9 | 97.5 | 95.9 | 82.4 | – | – | – | – | – | 93.8 | 86.9 | 106 | 97.5 | 94.1 | 98.2 | 99.6 | 97 | 96.7 | 101 | > 10 | – | > 10 | > 10 | 0.9 | – | 0 | 0 | 101 | 104 | 98.5 | 102 | 103 | > 10 | 0 |
| CCCCn1ccc(N2CCC(c3ccccc3)CC2)c(Cl)c1=O | 102 | 103 | 87.7 | 111 | 68.4 | 107 | 96.7 | 87 | 99.3 | 89.8 | 99.2 | 101 | 86.7 | 108 | 78.9 | 100 | 98.7 | 100 | 98.8 | 99 | – | > 10 | > 10 | > 10 | 1 | 0 | 0.4 | 0 | 106 | 106 | 104 | 106 | 97.2 | > 10 | 0 |
